The CheMixHub viscosity set

Test: xn = mol fraction of the nth substance listed

CCCC[P+](CC)(CCCC)CCCC.[Br-] + O
Conditions	viscosity [mPa·s]
303.15 K, 101 kPa, x1 = 0.008931	1.225

CCOC(C)=O + O
298.15 K, 101 kPa
Conditions	viscosity [mPa·s]
x1 = 0.00139	0.9095
x1 = 0.001837	0.9129
x1 = 0.003766	0.9354
x1 = 0.006372	0.9652
x1 = 0.006895	0.9678
x1 = 0.01022	1.004
x1 = 0.01327	1.036
x1 = 0.8902	0.4495
x1 = 0.9238	0.4395
x1 = 0.9579	0.4312

Cc1c[nH]c(=O)[nH]c1=O + O
viscosity [mPa·s], 101.3 kPa
Conditions	293.15 K	298.15 K	303.15 K	308.15 K	313.15 K	318.15 K
x1 = 0.000119	1.006	0.895	0.803	0.738	0.623	0.595
x1 = 0.000164	–	0.893	–	0.722	–	0.598
x1 = 0.0001877	1.008	0.897	0.805	0.74	0.625	0.597
x1 = 0.000266	–	0.895	–	0.723	–	0.6
x1 = 0.0003006	1.01	0.899	0.807	0.742	0.627	0.599
x1 = 0.0003339	–	0.896	–	0.724	–	0.6
x1 = 0.0003713	–	0.896	–	0.724	–	0.601
x1 = 0.0003733	1.012	0.901	0.809	0.744	0.629	0.601
x1 = 0.0004194	–	0.897	–	0.725	–	0.601
x1 = 0.0004572	1.014	0.903	0.811	0.746	0.631	0.603
x1 = 0.0004811	–	0.898	–	0.726	–	0.602
x1 = 0.0005454	1.016	0.905	0.813	0.748	0.633	0.605

Nc1cc[nH]c(=O)n1 + O
viscosity [mPa·s], 101.3 kPa
Conditions	x1 = 0.000131	x1 = 0.0001895	x1 = 0.0002822	x1 = 0.000457	x1 = 0.0004889	x1 = 0.0005591
298.15 K	0.892	0.893	0.894	0.895	0.896	0.897
308.15 K	0.721	0.722	0.722	0.724	0.724	0.725
318.15 K	0.598	0.598	0.599	0.601	0.601	0.602

O=C([O-])CC(O)(CC(=O)O)C(=O)O.[K+] + O
viscosity [mPa·s], 101 kPa
Conditions	293.15 K	298.15 K	303.15 K	308.15 K
x1 = 0.0032	1.074	0.954	0.853	0.766
x1 = 0.0089	1.237	1.089	0.97	0.876
x1 = 0.0177	1.419	1.253	1.117	1.002

[O-][Cl+3]([O-])([O-])O[Cl+3]([O-])([O-])[O-] + O
293.15 K, 101.33 kPa
Conditions	viscosity [mPa·s]
x1 = 0.428	1.179
x1 = 0.46	0.949
x1 = 0.474	0.893
x1 = 0.491	0.821
x1 = 0.499	0.796
x1 = 0.51	0.762
x1 = 0.519	0.754
x1 = 0.602	0.726
x1 = 0.711	0.714
x1 = 0.787	0.713
x1 = 0.818	0.709
x1 = 0.906	0.708

CCCCCCC(=O)O + c1ccccc1
298.15 K, 101 kPa
Conditions	viscosity [mPa·s]
x1 = 0.03	0.631
x1 = 0.063	0.666
x1 = 0.096	0.705
x1 = 0.13	0.752
x1 = 0.29	0.99
x1 = 0.38	1.168
x1 = 0.47	1.49
x1 = 0.71	2.3

CCOC(C)=O + c1ccccc1
Conditions	viscosity [mPa·s]
298 K, 101.3 kPa, x2 = 0.1715	0.478
298 K, 101.3 kPa, x2 = 0.3251	0.489
298 K, 101.3 kPa, x2 = 0.5324	0.507
298 K, 101.3 kPa, x2 = 0.6702	0.534
298 K, 101.3 kPa, x2 = 0.8535	0.57
298.15 K, 101 kPa, x1 = 0.0447	0.588
298.15 K, 101 kPa, x1 = 0.1505	0.556
298.15 K, 101 kPa, x1 = 0.2473	0.5181
298.15 K, 101 kPa, x1 = 0.2482	0.531
298.15 K, 101 kPa, x1 = 0.3049	0.499
298.15 K, 101 kPa, x1 = 0.3312	0.499
298.15 K, 101 kPa, x1 = 0.351	0.507
298.15 K, 101 kPa, x1 = 0.4099	0.483
298.15 K, 101 kPa, x1 = 0.4481	0.489
298.15 K, 101 kPa, x1 = 0.453	0.4803
298.15 K, 101 kPa, x1 = 0.461	0.4782
298.15 K, 101 kPa, x1 = 0.4981	0.48
298.15 K, 101 kPa, x1 = 0.5495	0.472
298.15 K, 101 kPa, x1 = 0.6517	0.458
298.15 K, 101 kPa, x1 = 0.7368	0.4446
298.15 K, 101 kPa, x1 = 0.7524	0.446
298.15 K, 101 kPa, x1 = 0.8551	0.437
298.15 K, 101 kPa, x1 = 0.9445	0.431
298.15 K, 101 kPa, x2 = 0.1725	0.442
298.15 K, 101 kPa, x2 = 0.5441	0.487
298.15 K, 101 kPa, x2 = 0.826	0.551
308.15 K, 101 kPa, x1 = 0.0447	0.515
308.15 K, 101 kPa, x1 = 0.1505	0.492
308.15 K, 101 kPa, x1 = 0.2482	0.472
308.15 K, 101 kPa, x1 = 0.351	0.455
308.15 K, 101 kPa, x1 = 0.4481	0.44
308.15 K, 101 kPa, x1 = 0.4981	0.433
308.15 K, 101 kPa, x1 = 0.5495	0.426
308.15 K, 101 kPa, x1 = 0.6517	0.415
308.15 K, 101 kPa, x1 = 0.7524	0.405
308.15 K, 101 kPa, x1 = 0.8551	0.396
308.15 K, 101 kPa, x1 = 0.9445	0.39
318 K, 101.3 kPa, x2 = 0.1624	0.3894
318 K, 101.3 kPa, x2 = 0.3233	0.3971
318 K, 101.3 kPa, x2 = 0.5251	0.4129
318 K, 101.3 kPa, x2 = 0.671	0.4287
318 K, 101.3 kPa, x2 = 0.8633	0.4505

CCOc1ccccc1 + c1ccccc1
viscosity [mPa·s], 101.33 kPa
Conditions	298.15 K	323.15 K
x1 = 0.2	0.68	0.49
x1 = 0.5	0.823	0.576
